# Assays:
# TASK-1 = target: T1, TASK-1 (Homo sapiens, UniProt O14649); experiment: two-electrode voltage clamp in Xenopus oocytes, block of outward current; type: cell-based
# T1 construct: gene KCNK3; human TASK-1 (KCNK3, NM_002246) cRNA expressed in Xenopus laevis oocytes
# NaV1.5 = target: T2, NaV1.5 (Homo sapiens, UniProt Q14524); experiment: two-electrode voltage clamp in Xenopus oocytes, block of inward current; type: cell-based
# T2 construct: gene SCN5A; human Nav1.5 (hH1, M77235) cRNA expressed in Xenopus laevis oocytes
# T2 sequence (Q14524 whole entry): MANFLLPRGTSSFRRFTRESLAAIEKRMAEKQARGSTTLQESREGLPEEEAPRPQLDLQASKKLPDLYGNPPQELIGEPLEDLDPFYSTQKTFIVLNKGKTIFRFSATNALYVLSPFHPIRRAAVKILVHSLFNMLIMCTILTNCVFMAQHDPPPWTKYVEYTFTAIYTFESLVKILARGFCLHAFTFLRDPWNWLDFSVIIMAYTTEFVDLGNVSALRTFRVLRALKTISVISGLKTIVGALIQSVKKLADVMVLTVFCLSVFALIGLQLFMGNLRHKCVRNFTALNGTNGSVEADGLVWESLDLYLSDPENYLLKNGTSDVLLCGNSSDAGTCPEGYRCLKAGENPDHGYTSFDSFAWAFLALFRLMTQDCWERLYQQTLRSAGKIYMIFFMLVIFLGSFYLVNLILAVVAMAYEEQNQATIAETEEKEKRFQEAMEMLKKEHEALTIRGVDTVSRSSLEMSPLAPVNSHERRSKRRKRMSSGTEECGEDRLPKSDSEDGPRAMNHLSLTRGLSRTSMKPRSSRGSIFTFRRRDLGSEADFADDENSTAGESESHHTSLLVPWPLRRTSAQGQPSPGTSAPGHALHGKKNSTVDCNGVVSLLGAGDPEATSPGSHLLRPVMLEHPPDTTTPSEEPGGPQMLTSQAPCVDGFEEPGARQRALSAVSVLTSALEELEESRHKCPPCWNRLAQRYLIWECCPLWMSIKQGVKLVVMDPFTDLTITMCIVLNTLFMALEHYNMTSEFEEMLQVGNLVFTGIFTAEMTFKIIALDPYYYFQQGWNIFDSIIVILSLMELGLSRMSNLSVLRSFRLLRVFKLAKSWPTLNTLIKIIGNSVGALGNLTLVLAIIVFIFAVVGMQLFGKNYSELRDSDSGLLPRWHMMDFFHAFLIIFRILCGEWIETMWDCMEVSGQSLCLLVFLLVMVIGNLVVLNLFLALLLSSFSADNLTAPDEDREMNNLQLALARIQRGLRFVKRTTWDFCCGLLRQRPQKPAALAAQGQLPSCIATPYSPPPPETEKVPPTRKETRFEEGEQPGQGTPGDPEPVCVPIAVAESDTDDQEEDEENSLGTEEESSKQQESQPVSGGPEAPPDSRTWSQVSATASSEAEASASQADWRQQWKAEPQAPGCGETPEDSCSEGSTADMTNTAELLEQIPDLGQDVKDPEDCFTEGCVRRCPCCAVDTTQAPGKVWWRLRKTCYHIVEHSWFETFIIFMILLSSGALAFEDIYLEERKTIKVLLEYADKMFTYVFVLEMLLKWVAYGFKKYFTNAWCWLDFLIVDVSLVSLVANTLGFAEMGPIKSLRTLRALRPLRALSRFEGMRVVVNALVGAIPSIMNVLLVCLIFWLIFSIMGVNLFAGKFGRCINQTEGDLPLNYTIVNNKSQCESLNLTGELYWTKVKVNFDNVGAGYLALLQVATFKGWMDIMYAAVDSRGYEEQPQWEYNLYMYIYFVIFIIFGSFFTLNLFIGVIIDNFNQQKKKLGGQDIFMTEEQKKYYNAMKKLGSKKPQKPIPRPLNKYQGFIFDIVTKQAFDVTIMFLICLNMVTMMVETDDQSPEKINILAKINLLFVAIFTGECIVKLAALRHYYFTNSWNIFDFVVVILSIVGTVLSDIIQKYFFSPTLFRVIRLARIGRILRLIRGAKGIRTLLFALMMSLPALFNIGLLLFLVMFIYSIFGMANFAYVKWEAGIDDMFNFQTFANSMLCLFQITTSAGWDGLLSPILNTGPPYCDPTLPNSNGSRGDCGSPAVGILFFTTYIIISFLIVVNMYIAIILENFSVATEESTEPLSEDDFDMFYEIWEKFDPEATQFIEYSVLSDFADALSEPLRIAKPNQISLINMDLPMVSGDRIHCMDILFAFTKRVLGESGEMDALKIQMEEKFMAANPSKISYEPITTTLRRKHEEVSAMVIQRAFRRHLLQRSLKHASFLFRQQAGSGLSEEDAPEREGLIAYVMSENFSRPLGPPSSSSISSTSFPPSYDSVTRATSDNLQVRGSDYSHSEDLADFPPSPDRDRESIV
# T1 sequence (O14649 whole entry): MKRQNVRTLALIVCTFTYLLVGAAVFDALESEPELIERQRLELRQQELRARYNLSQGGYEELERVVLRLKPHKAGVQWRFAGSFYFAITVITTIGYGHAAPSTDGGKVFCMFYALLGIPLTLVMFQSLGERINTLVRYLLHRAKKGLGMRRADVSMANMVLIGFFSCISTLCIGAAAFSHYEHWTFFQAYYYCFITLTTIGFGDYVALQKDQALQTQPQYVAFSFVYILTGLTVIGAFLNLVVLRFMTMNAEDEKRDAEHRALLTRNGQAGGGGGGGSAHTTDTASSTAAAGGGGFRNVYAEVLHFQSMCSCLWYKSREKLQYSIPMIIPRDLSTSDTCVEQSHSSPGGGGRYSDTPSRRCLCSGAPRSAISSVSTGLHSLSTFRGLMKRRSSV
smiles,measurement,setting,value
CC(C)OC(=O)CCC/C=C\C[C@@H]1[C@@H](/C=C/C(F)(F)COc2ccccc2)[C@H](O)C[C@@H]1O [tafluprost],EC50,TASK-1,0.186 ± 0.04 µM
same,IC50,NaV1.5,~76 µM
